Data: PMC4914440 (Pharmacological research, 2016)

Legend:
5-HT2C receptor [1] = target: T1, 5-HT2C receptor (Homo sapiens, UniProt P28335); conditions: serum free
T1 sequence (P28335 33-458): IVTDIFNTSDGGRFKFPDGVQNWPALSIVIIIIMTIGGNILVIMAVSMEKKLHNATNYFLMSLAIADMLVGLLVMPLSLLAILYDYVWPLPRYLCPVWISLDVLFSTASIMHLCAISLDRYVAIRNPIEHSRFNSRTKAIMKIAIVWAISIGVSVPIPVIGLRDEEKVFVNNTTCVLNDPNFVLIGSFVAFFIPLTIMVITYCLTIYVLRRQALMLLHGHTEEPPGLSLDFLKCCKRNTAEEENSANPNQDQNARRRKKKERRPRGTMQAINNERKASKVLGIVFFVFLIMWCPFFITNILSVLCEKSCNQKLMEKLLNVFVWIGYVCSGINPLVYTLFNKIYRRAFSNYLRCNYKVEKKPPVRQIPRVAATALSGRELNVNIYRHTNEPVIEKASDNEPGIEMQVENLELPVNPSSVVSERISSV

DAT = conditions: cited from earlier work
[2] = within 1 hr of i.p. dose of 15 mg/kg; cited from earlier work
[3] = cited from earlier work
5-HT2A receptor [4] = target: T2, 5-HT2A receptor (Homo sapiens, UniProt P28223); experiment: Prolonged; format: cell-based; conditions: for antagonism of 100 nM 5-HT calcium response: 10 μM efavirenz
h5-HT2A = h5-HT2A (Homo sapiens, UniProt P28223); conditions: 10 μM efavirenz; cited from earlier work
[5] = Estimated brain concentration, authors' calculation
[6] = tested on: serotonin transporter (SERT); conditions: 10 μM; cited from earlier work
5-HT2A receptor [7] = target: T2, 5-HT2A receptor; experiment: Intracellular calcium assay of Gq signaling, HEK293 cells; format: cell-based
[8] = cited from earlier work; remark: listed apart in the source
5-HT2C receptor [9] = target: T1, 5-HT2C receptor; experiment: Competition radioligand binding, concentration-response

T2 sequence (P28223 whole entry): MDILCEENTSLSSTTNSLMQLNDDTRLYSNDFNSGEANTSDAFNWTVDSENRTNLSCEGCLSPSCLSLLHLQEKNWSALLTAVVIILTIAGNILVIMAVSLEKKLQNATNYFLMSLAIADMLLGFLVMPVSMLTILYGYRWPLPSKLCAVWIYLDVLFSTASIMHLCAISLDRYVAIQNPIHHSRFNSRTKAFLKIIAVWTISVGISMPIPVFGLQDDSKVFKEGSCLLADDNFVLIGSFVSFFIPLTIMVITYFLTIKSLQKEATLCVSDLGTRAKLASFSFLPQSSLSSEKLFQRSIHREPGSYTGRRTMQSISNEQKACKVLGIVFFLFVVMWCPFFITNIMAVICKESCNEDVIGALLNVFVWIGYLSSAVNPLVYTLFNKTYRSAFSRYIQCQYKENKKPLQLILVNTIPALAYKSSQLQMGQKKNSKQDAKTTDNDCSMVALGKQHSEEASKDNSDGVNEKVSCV
h5-HT2A, sequence (P28223 whole entry): as above

In the case of O=C1Nc2ccc(Cl)cc2[C@@](C#CC2CC2)(C(F)(F)F)O1 [efavirenz, (4S)-6-chloro-4-(2-cyclopropylethynyl)-4-(trifluoromethyl)-2,4-dihydro-1H-3,1-benzoxazin-2-one], the “concentration completely suppressing the 5-HT agonist effect” value (5-HT2C receptor [1]; 0.03 nM 5-HT (EC50)) is reported as no less than 60 µM, the “concentration inhibiting the 5-HT agonist effect” value (5-HT2C receptor [1]; 0.03 nM 5-HT (EC50)) is reported as no less than 10 µM and the “concentration with no significant effect on 5-HT responses” value (5-HT2C receptor [1]; 0.03 nM 5-HT (EC50)) is reported as “up to 3 μM”. The agonist activity (5-HT2C receptor [1]) was “did not have any agonist activity”, the transporter function (DAT) was “functioned as a DAT and SERT blocker” and the “brain levels relative to plasma levels” value [2] was “exceed 4.6 times”. For the same molecule, the “mean concentration in CSF” value ([3]; across studies) was “approximately 44 nM”, the “CSF levels as % of plasma concentrations” value [3] was 0.52% and the “antagonism of 100 nM 5-HT calcium response” value (5-HT2A receptor [4]; cells pretreated 3 days with 30 μM 5-HT) was 49%. For the same molecule, the “antagonism of 100 nM 5-HT calcium response” value (5-HT2A receptor [4]; cells pretreated 3 days with 30 μM efavirenz) was 49%, the “antagonism of 100 nM 5-HT calcium response” value (5-HT2A receptor [4]; cells pretreated 3 days with DMSO vehicle) was 48% and the “reduction of the 100 μM maximal 5-HT response” value (5-HT2A receptor [4]; 3 day exposure to 30 μM, vs 3 day vehicle) was 81%. For the same molecule, the “displacement of specifically bound radioligand” value (h5-HT2A) was no less than 75%, the “estimated concentration in brain tissue” value ([5]; 44 nM ÷ 0.002) was roughly 22 µM and the corresponding brain concentrations ([5]; plasma >2.74 μg/mL, assuming rat brain accumulation 4.6) was greater than 40 µM. For the same molecule, the “effect on serotonin reuptake” value [6] was “blocks reuptake of serotonin”, the “inhibition of agonist responses (5-HT, TCB-2, α-Me-5HT)” value (5-HT2A receptor [7]; 30 μM antagonist) was “significant inhibition” and the Schild plot slope (5-HT2A receptor [7]; (±)-DOI as agonist) was 1.06 ± 0.054. The Schild plot slope (5-HT2A receptor [7]; LSD as agonist) was 1.2 ± 0.16, the “novel open field locomotor activity” value [8] was “dose-dependently depressed novel open field locomotor activity” and the Ki (5-HT2C receptor [9]) was 1700 ± 280 nM. For the same molecule, the “pseudo Hill slope” value (5-HT2C receptor [9]; competition binding) was −1.22 ± −0.18.
